# Laboratory results: patent US11904054B2, “Compositions and methods for delivering pharmaceutical agents” (Arizona Board of Regents on Behalf of the University of …, priority 2018, dated 2024)
# Assays:
# [1] = Particle sizing and size distribution by image analysis of SEM micrographs; format: physicochemical
# From the text: Using conditions similar to previously reported (Li, X., et al., J Aerosol Med Pulm Drug Deliv, 2014. 27(2): p. 81-93; Li, X., et al., European Journal of Pharmaceutical Sciences, 2014. 52: p. 191-205; Meenach, S. A., et al., AAPS PharmSciTech, 2014. 15(6): p. 1574-87; Li, X., et al., Pharm Sci, 2014. 103(9): p. 2937-49; Meenach, S. A., et al., European Journal of Pharmaceutical Sciences, 2013. 49(4): p. 699-797; Muralidharan, P., et al., The Royal Society of Chemistry(RSC): Molecular Systems Design & Engineering, 2016: p. 1-18), visual imaging and analysis of particle size, morphology, and surface morphology were achieved by scanning electron microscopy (SEM) using a FEI Inspect S microscope (FBI, Brno, Czech republic). […]
# The mean size, standard deviation, and size range were determined using SigmaScan™ Pro 5.0.0 (Systat, Inc., San Jose, Calif.) based on their scanning electron micrographs using a similar procedure that we have previously reported (Muralidharan et al., supra; Meenach, S. A., et al., AAPS PharmSciTech, 2014. 15(6): p. 1574-87). Representative micrographs for each particle sample at 3000× magnification was analyzed by measuring the diameter of at least 100 particles per sample.
# MCT rats = test: PH development in MCT rats; format: in vivo
# [2] = Residual water content by Karl Fischer titration; format: physicochemical; conditions: Karl Fisher Titration, n = 3, Mean ± SD
# From the text: Using conditions similar to previously reported (Li, X., et al., J Aerosol Med Pulm Drug Deliv, 2014. 27(2): p. 81-93; Li, X., et al., European Journal of Pharmaceutical Sciences, 2014. 52: p. 191-205; Meenach, S. A., et al., AAPS PharmSciTech, 2014. 15(6): p. 1574-87; Li, X., et al., Pharm Sci, 2014. 103(9): p. 2937-49; Meenach, S. A., et al., European Journal of Pharmaceutical Sciences, 2013. 49(4): p. 699-797; Muralidharan, P., et al., The Royal Society of Chemistry(RSC): Molecular Systems Design & Engineering, 2016: p. 1-18), the residual water content of all SD and Co-SD powders were quantified analytically by Karl Fischer titration (KFT) coulometrically using a TitroLine 7500 trace titrator (SI Analytics, Germany).
# Approximately 2-10 mg of powder was added to the titration cell containing Hydranal® Coulomat AD reagent. The residual water content was then calculated.
SMILES,"Particle size, Range ([1]; n = 100)","Particle size, Mean ([1]; n = 100, Mean ± SD)",PH development (MCT rats),Water content [2]
"C[N+](C)(C)C[C@H](O)CC(=O)[O-] [Raw L-Car, L-Carnitine]",298.38-1810.57 μm,659.05 ± 235.82 μm,attenuates PH development,2.68 ± 0.8 % (w/w)
"OC[C@@H](O)[C@@H](O)[C@H](O)[C@H](O)CO [Raw Man, D-mannitol]",–,–,–,0.3 ± 0.13 % (w/w)
